Values of other authors in patent publication EP2818484A1, “Synergistic combination of an anti-IgE antibody and an EP2 receptor agonist” (Universitat Autònoma de Barcelona, priority 2013, dated 2014).

System: human lung mast cells
Conditions: Kay et al., British Journal of Pharmacology 2006, 147, 707

SMILES: CCCCC[C@H](O)/C=C/[C@H]1[C@H](O)CC(=O)[C@@H]1C/C=C\CCCC(=O)O [PGE2]
- activation of human lung mast cells: inhibit activation

SMILES: CCCC1([C@H](O)C/C=C/[C@H]2[C@H](O)CC(=O)[C@@H]2CCCCCCC(=O)OC)CCC1 [butaprost]
- activation of human lung mast cells: inhibit activation
